From patent US20100119595A1, “Monounsaturated fatty acids and perhydrocyclopentanophenanthrene nucleus combination molecules, and their precursors, and the use of all of these as weight-loss agents” (priority 2001, published 2010)
“Also recorded” adds a separate entry of the source.

Assays:
[1] = Stability of the compound
[2] = system: MCF-7 human breast cancer cell line; assay: MCF-7 human breast cancer cell line test; type: cell-based
Excerpt: The practical use of any compound given to humans for the treatment of obesity require, of course, that the compound not only be effective, but able to pass the FDA requirements and be approved as a drug suitable for humans. […] One test used to determine reactivity with human breast cancer cells is the “MCF-7 human breast cancer cell line test”. The lower the concentration of drug required to produce agonist activity, the more potential there is for problems with cancer causing &/or promotion in humans A comfortable level in the pharmaceutical industry would be a reactivity in the micromolar range. In the case of oleyl estrone, agonist activity begins at […]; with estrone eicosenoate, agonist activity begins at a ten times greater concentration of 1.0 nanomolar. This low concentration of agonist activity mitigates the possibility that these compounds would gain FDA approval for either drug.

human T47D breast cells = settings: ER-CALUX; cited from earlier work
[3] = Human study of 2 hydroxy estrone eicosenoate (Example 8); type: in vivo; settings: humans, oral capsule, 0.75 or 0.375 micromoles/kg
Description: In this random, double-blind, placebo controlled study, subjects are selected to one of three groups and take a capsule orally every morning containing one of the following: a) sunflower oil (placebo), b) 2 hydroxy estrone eicosenoate dissolved in sunflower oil at a dose of 0.75 micromoles/kg, or c) 2 hydroxy estrone eicosenoate dissolved in sunflower oil at a dose of 0.375 micromoles/kg. […]
Different tests are performed at least five different times during each study, namely at the screening of potential participants, at the beginning of the study, weekly during the trials, at the end of the first 4 week period and at the end of the second 4 week treatment period. • 1) SCREENING: Subjects are screened to exclude hypothyroidism, pregnancy, and heart disease. […] Subjects selected to participate in the studies have the following initial measurements: WEIGHT, WAIST to HIP RATIO, HEIGHT, BMI (calculated), BODY FAT % & TOTAL BODY FAT (via bioelectrical impedance method). […]
Ad libitum diets are followed, and food intake and appetite are assessed daily by the patient with an appropriate questionnaire and booklet. […]

[4] = Rat study of 2 hydroxyestrone eicosenoate (Example 9); type: in vivo, Osborne Mendle rats; settings: rats, oral gavage 21 days, 10, 5, 3.33 or 2.5 micromoles/kg
Description: Osborne Mendle rats are selected as the study subjects due to their propensity to gain fat to when fed a high fat diet. An initial measurement of body weight is performed on each rat.
The rats are placed individually in appropriate cages and allowed an ad libitum diet of standard rat chow and water for a 10-day period. During this 10-day period the rats are gavaged daily with 0.1 cc volume of sunflower oil to allow them to become comfortable with being handled and receiving the gavage tube (it takes about 10 days for this acclimation to occur, and is important so that the animals are not stressed by the gavage).
Daily measurements include the following: • 1. Weight • 2. Weight of food consumed • 3. Spillage • 4. Water consumed, both volume and weight
The rats remain confined and are denied out-of-cage activity or exercise for the duration of the experiment other than normal daily activity confined to the cage. This initial 10 day period establishes a pattern and average of weight gain, to acclimate the animals to the gavage procedure, and determine the average food and water consumption for each rat. […]
At the end of the study, rats are anesthetized then sacrificed via guillotine. […] Weight of the uterus is determined. […]

[5] = cited from earlier work
[6] = Rabbit 10-day oral study: body weight and food consumed (Example 1)
Description: During the first 3 weeks, rabbits were only weighed and allowed to eat. On the fourth week, all rabbits were given 0.05 cc dose of peanut oil.
Five New Zealand white rabbits were obtained and caged in their natural environment (outside) and fed a cafeteria, ad libitum diet of rabbit chow. […] The appropriate weights of OE or EE were diluted in peanut oil to provide concentrations as follows: 1) OE, 2 mg/0.05 cc; 2) EE, 1 mg/0.05 cc; 3) 0.33 mg/0.05 cc; 4) EE, 0.1mg/0.05 cc, 5) EE, 0.03 mg/0.05 cc
For the initial three weeks, the rabbits were given no medicine or oil. Body weight and food consumed were measured daily; establishing a daily average for food consumed and weight change.
Rabbits received the assigned dose for 10 consecutive days. Rabbit weight (kg) and food eaten (grams) were determined daily.

CCCCCCCC/C=C\CCCCCCCCCC(=O)Oc1cc2c(cc1Br)[C@H]1CC[C@]3(C)C(=O)CC[C@H]3[C@@H]1CC2 (relative stereo) [bromo compound, 2-bromoestrone ester of cis-11-eicosenoic acid]
stability [1]: stable | reactivity in MCF-7 test ([2]; compared with oleoyl estrone): only as reactive as oleoyl estrone

C[C@]12CC[C@@H]3c4cc(O)c(O)cc4CC[C@H]3[C@@H]1CCC2=O [2 hydroxy estrone]
times less active than estrone (human T47D breast cells): 10,000 times

CCCCCCCC/C=C\CCCCCCCCCC(=O)Oc1cc2c(cc1O)[C@H]1CC[C@]3(C)C(=O)CC[C@H]3[C@@H]1CC2 [2-hydroxy estrone eicosenoate]
appetite [3]: reduces appetite | weight loss, loss of body fat, and/or decrease of body fat% [3]: produces weight loss | body weight &/or body fat [4]: reduction of body weight &/or body fat | food consumption [4]: reduction in food consumption

CCCCCCCC/C=C\CCCCCCCC(=O)Oc1ccc2c(c1)CC[C@@H]1[C@@H]2CC[C@]2(C)C(=O)CC[C@@H]12 [OE, Oleoyl-estrone, reference compound]
lipid reserves ([5]; Zucker lean rats, one study): lost virtually all their lipid reserves | weight loss ([5]; variety of rats, i.v. or oral, published articles): rapid and sustained weight loss | concentration at which agonist activity begins ([2]; MCF-7 human breast cancer cells): 0.9 nM | FINAL WT. ([6]; OE 2 mg/d oral in peanut oil, 10 days, one rabbit, initial wt 3.70 kg): 3.60 kg | WT. Δ w/ Rx 10 days ([6]; OE 2 mg/d oral, 10 days, pre-Rx 10 day avg. +0.121, control +0.14): −0.10 kg | FOOD/DAY AVG. w/ Rx ([6]; OE 2 mg/d oral, 10 days, pre-Rx avg 160.55): 93.8 grams | side effect, behaviour ([6]; OE 2 mg/d oral, after one week of therapy, rabbit): very agitated, mean and aggressive; also recorded: irritability and aggressive behavior

CCCCCCCCCCCCCCCCCC(=O)Oc1ccc2c(c1)CCC1C2CCC2(C)C(=O)CCC12 (stereo not drawn) [stearoyl estrone]
efficacy compared with oleoyl estrone ([5]; Life Sci, 1998: 62 (15): 1349-59): less effective
